In patent US20060100431A1, “Biologically active compounds” (Amura Therapeutics Limited, priority 2002, published 2006):

Legend:
Assay type in all cases: biochemical
CPB2.8ΔCTE = molecular target: T1, CPB2.8ΔCTE (Leishmania mexicana, UniProt P36400); experiment: Leishmania mexicana cysteine protease B (CPB) peptidase activity assay (Ki); details: Ki, inhibitors of Leismania mexicana CPB protease
T1 construct: Wild-type recombinant CPB without the C-terminal extention (i.e. CPB2.8ΔCTE); Dr. Jeremy Mottram (Wellcome Centre for Molecular Parasitology, University of Glasgow)
Procedure, shortened: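 Apparent Ki was derived by regression of activity against inhibitor concentration, assuming pure-competitive reversible binding. Reaction: 0.25 nM CPB lacking the C-terminal extension, pH 5.5 acetate buffer (1 mM EDTA, 200 mM NaCl, 10 mM DTT), 25 °C, followed by continuous substrate fluorescence.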

Wild-type cruzipain = Wild-type cruzipain (Trypanosoma cruzi, UniProt P25779); experiment: Trypanosoma cruzi cruzipain peptidase activity assay (Ki); details: read-out: Ki, inhibitors of cruzain and cruzipains
Procedure, shortened: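 Native cruzipain from T. cruzi Dm28 epimastigotes, 2.5 nM, in 100 mM sodium phosphate pH 6.75 with 1 mM EDTA and 10 mM L-cysteine, 25 °C, DMSO <1%. Rates taken from continuous fluorogenic substrate read; Ki by regression assuming reversible pure-competitive inhibition.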

Bovine cathepsin S = molecular target: T2, Bovine cathepsin S (Bos taurus, UniProt P25326); experiment: Cathepsin S peptidase activity assay, bovine enzyme (Ki); details: species of cathepsin S not given; read-out: Ki, inhibitors of cathepsin S
T2 construct: purchased CN Biosciences
Description: Unless otherwise stated, all general chemicals and biochemicals were purchased from either the Sigma Chemical Company, Poole, Dorset, U.K or from Fisher Scientific UK, Loughborough, Leicestershire, U.K. Absorbance assays were carried out in flat-bottomed 96-well plates (Spectra; Greiner Bio-One Ltd., Stonehouse, Gloucestershire, U.K.) using a SpectraMax PLUS384 plate reader (Molecular Devices, Crawley, U.K.). Fluorescence high throughput assays were carried out in either 384-well microtitre plates (Corning Costar 3705 plates, Fisher Scientific) or 96-well ‘U’ bottomed Microfluor W1 microtitre plates (Thermo Labsystems, Ashford, Middlesex, U.K.). Fluorescence assays were monitored using a SpectraMax Gemini fluorescence plate reader (Molecular Devices). For substrates employing either a 7-amino-4-methylcoumarin (AMC) or a 7-amino-4-trifluoromethylcoumarin (AFC) fluorophore, assays were monitored at an excitation wavelength of 365 nm and an emission wavelength of 450 nm and the fluorescence plate reader calibrated with AMC. For substrates employing a 3-amino-benzoyl (Abz) fluorophore, assays were monitored at an excitation wavelength of 310 nm and an emission wavelength of 445 nm; the fluorescence plate reader calibrated with 3-amino-benzamide (Fluka). Unless otherwise indicated, all the peptidase substrates were purchased from Bachem UK, St Helens, Merseyside, UK. Substrates utilizing fluorescence resonance energy transfer methodology (i.e. FRET-based substrates) were synthesized at Incenta Limited using published methods (Atherton & Sheppard, Solid Phase Peptide Synthesis, IRL Press, Oxford, U.K, 1989) and employed Abz (2-aminobenzoyl) as the fluorescence donor and 3-nitro-tyrosine [Tyr(NO2)] as the fluorescence quencher (Meldal, M. and Breddam, K., Anal. Biochem, 195, 141-147, 1991). Hydroxyethylpiperazine ethanesulfonate (HEPES), tris-hydroxylmethyl aminomethane (tris) base, bis-tris-propane and all the biological detergents (e.g. CHAPS, zwittergents, etc.) were purchased from CN Biosciences UK, Beeston, Nottinghamshire, U.K. Glycerol was purchased from Amersham Pharmacia Biotech, Little Chalfont, Buckinghamshire, U.K. Stock solutions of substrate or inhibitor were made up to 10 mM in 100% dimethylsulfoxide (DMSO) (Rathburns, Glasgow, U.K.) and diluted as appropriately required. In all cases the DMSO concentration in the assays was maintained at less than 1% (vol./vol.).
Assay protocols were based on literature precedent (Table 4; Barrett, A. J., Rawlings, N. D. and Woessner, J. F., 1998, Handbook of Proteolytic Enzymes, Academic Press, London and references therein) and modified as required to suit local assay protocols. Enzyme was added as required to initiate the reaction and the activity, as judged by the change in fluorescence upon conversion of substrate to product, was monitored over time. All assays were carried out at 25±1° C.
Bovine cathepsin S, human cathepsin L, human cathepsin H and human cathepsin B were obtained from CN Biosciences. Recombinant human cathepsin S, human cathepsin K and human cathepsin X were obtained from Dr. Boris Turk (Josef Stefan Institute, Ljubljana, Slovenia). Unless otherwise stated, all peptidase activity assays were carried out in 10 mM bis-tris-propane (BTP), pH 6.5 containing 1 mM EDTA, 5 mM 2-mercaptoethanol and 1 mM CaCl2. Human cathepsin H activity assays were carried out in 10 mM BTP pH 6.5, 142 mM NaCl2, 1 mM CaCl2, 1 mM EDTA, 1 mM DTT, 0.035 mM Zwittergent 3-16. Human cathepsin K assays were carried out in 100 mM sodium acetate; pH 5.5 containing 20 mM L-cysteine and 1 mM EDTA (Bossard, M. J., et. al., J. Biol. Chem., 21, 12517-12524, 1996). Human cathepsin X assays were carried out in 100 mM sodium acetate; pH 5.5 containing 20 mM L-cysteine; 0.05% (w/v) Brij 35 and 1 mM EDTA (Santamaria, I., et. al., J. Biol. Chem., 273, 16816-16823, 1998; Klemencic, J, et al., Eur. J. Biochem., 267, 5404-5412, 2000).

human cathepsin L = molecular target: T3, human cathepsin L (Homo sapiens, UniProt P07711); experiment: Cathepsin L peptidase activity assay (Ki); details: read-out: Ki, inhibitors of cathepsin L
T3 construct: purchased CN Biosciences
Procedure, shortened: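 Run at 25±1° C with DMSO under 1%: buffer was 10 mM BTP pH 6.5 containing 1 mM EDTA, 1 mM CaCl2 and 5 mM 2-mercaptoethanol. Enzyme (1 nM cathepsin L) was added last to start hydrolysis of Ac-Phe-Arg-AMC held at KM^app (~20 μM), followed kinetically by fluorescence at 365/450 nm.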

human cathepsin B = molecular target: T4, human cathepsin B (Homo sapiens, UniProt P07858); experiment: Cathepsin B peptidase activity assay (Ki); details: read-out: Ki, inhibitors of cathepsin B
T4 construct: purchased CN Biosciences
Procedure, shortened: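 Buffer: 10 mM bis-tris-propane pH 6.5, 1 mM EDTA, 5 mM 2-mercaptoethanol, 1 mM CaCl2; DMSO <1%. Ki assumed reversible, pure-competitive, from Ki^app=Ki(1+[So]/KM^app) by non-linear regression.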

Wild-type cruzipain, sequence (P25779 whole entry): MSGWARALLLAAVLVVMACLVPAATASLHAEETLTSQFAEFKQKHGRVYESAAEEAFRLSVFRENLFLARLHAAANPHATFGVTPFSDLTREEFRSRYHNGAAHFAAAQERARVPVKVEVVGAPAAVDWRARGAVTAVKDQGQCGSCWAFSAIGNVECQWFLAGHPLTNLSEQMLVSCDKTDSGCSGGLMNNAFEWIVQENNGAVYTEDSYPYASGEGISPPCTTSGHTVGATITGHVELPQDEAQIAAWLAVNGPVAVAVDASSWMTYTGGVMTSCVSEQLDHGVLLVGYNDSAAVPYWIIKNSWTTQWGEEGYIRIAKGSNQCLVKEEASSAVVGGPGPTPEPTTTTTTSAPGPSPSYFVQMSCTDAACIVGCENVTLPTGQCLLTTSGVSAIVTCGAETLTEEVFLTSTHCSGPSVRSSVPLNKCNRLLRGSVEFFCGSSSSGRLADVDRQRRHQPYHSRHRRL
T2 sequence (P25326 115-331): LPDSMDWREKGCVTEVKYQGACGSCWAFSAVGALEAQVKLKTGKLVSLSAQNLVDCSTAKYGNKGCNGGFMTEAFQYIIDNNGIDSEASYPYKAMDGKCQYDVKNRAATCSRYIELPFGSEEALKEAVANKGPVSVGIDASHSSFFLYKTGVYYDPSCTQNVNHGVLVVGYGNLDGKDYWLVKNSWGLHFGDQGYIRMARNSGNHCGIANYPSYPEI
T1 sequence (P36400 126-343, stated change not applied): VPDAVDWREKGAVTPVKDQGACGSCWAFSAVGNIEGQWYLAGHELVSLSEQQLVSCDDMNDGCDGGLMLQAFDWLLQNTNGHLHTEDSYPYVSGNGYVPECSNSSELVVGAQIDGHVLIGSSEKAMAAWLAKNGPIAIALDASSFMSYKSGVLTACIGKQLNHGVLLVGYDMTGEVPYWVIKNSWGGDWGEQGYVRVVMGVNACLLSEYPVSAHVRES
T3 sequence (P07711 114-333): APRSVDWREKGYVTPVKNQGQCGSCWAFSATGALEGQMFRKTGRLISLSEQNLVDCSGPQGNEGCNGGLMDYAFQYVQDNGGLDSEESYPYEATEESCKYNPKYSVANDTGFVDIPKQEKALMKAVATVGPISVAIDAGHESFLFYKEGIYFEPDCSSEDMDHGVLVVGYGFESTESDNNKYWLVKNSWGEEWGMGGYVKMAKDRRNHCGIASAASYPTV

SMILES | Ki (Wild-type cruzipain) [µM] | Ki (Bovine cathepsin S) [µM] | Ki (CPB2.8ΔCTE) [µM] | Ki (human cathepsin L) [µM] | Ki (human cathepsin B) [µM]
CC(C)C[C@H](NC(=O)c1cccc(Oc2ccccc2)c1)C(=O)N1CC[C@@H]2[C@H]1C(=O)CN2C(=O)c1ccccc1 [Example 13, (3aR,6aS)-N-[(1S)-1-(4-Benzoyl-6-oxo-hexahydro-pyrrolo[3,2-b]pyrrole-1-carbonyl)-3-methyl-butyl]-3-phenoxy-benzamide] | < 5 | < 5 | < 5 | – | –
CC(C)C[C@H](NC(=O)c1cccc(CN)c1)C(=O)N1CC[C@@H]2[C@H]1C(=O)CN2S(=O)(=O)c1ccccc1 [Example 123, (3aR,6aS)-3-Aminomethyl-N-[(1S)-1-(4-benzenesulfonyl-6-oxo-hexahydro-pyrrolo[3,2-b]pyrrole-1-carbonyl)-3-methyl-butyl]-benzamide] | – | < 5 | – | – | –
CC(C)C[C@H](NC(=O)c1cnc2ccccc2n1)C(=O)N1CC[C@@H]2[C@H]1C(=O)CN2C(=O)c1cccnc1 [Example 19, (3aR,6aS)-Quinoxaline-2-carboxylic acid {(1S)-3-methyl-1-[6-oxo-4-(pyridine-3-carbonyl)-hexahydro-pyrrolo[3,2-b]pyrrole-1-carbonyl]-butyl}-amide] | < 5 | < 5 | – | – | –
CC(C)C[C@H](NC(=O)c1ccc(C(C)(C)C)cc1)C(=O)N1CC[C@@H]2[C@H]1C(=O)CN2C(=O)c1ccc(-c2ccccc2)s1 [Example 28, (3aR,6aS)-4-tert-Butyl-N-{(1S)-3-methyl-1-[6-oxo-4-(5-phenyl-thiophene-2-carbonyl)-hexahydro-pyrrolo[3,2-b]pyrrole-1-carbonyl]-butyl}-benzamide] | < 5 | – | < 5 | < 5 | < 5

The next lines start with results.

Ki (Wild-type cruzipain) [µM] | Ki (Bovine cathepsin S) [µM] | SMILES | Ki (CPB2.8ΔCTE) [µM] | Ki (human cathepsin L) [µM] | Ki (human cathepsin B) [µM]
< 5 | < 5 | CS(=O)(=O)c1ccccc1C(=O)N1CC(=O)[C@@H]2[C@H]1CCN2C(=O)[C@H](Cc1ccc(O)cc1)NC(=O)c1cccc(Br)c1 [Example 303, (3aR,6aS)-3-Bromo-N-{(1S)-1-(4-hydroxy-benzyl)-2-[4-(2-methanesulfonyl-benzoyl)-6-oxo-hexahydro-pyrrolo[3,2-b]pyrrole-1-yl]-2-oxo-ethyl}-benzamide] | – | – | –
< 5 | < 5 | O=C(N[C@@H](Cc1ccc(O)cc1)C(=O)N1CC[C@@H]2[C@H]1C(=O)CN2C(=O)c1ccccc1)c1cccc(F)c1 [Example 335, (3aR,6aS)-N-[(1S)-2-(4-Benzoyl-6-oxo-hexahydro-pyrrolo[3,2-b]pyrrol-1-yl)-1-(4-hydroxy-benzyl)-2-oxo-ethyl]-3-fluoro-benzamide] | – | – | –
– | < 5 | CC(C)C[C@H](NC(=O)c1cccc(Br)c1)C(=O)N1CC[C@@H]2[C@H]1C(=O)CN2C(=O)c1ccccc1 [Example 340, (3aR,6aS)-N-[(1S)-1-(4-Benzoyl-6-oxo-hexahydro-pyrrolo[3,2-b]pyrrole-1-carbonyl)-3-methyl-butyl]-3-bromo-benzamide] | – | – | –
< 5 | < 5 | O=C(N[C@@H](Cc1ccc(O)cc1)C(=O)N1CC[C@@H]2[C@H]1C(=O)CN2C(=O)c1ccccc1)c1ccc2ncsc2c1 [Example 317, (3aR,6aS)-Benzothiazole-6-carboxylic acid [(1S)-2-(4-benzoyl-6-oxo-hexahydro-pyrrolo[3,2-b]pyrrole-1-yl)-1-(4-hydroxy-benzyl)-2-oxo-ethyl]-amide] | – | – | –
< 5 | < 5 | O=C(N[C@@H](Cc1ccc(O)cc1)C(=O)N1CC[C@@H]2[C@H]1C(=O)CN2C(=O)c1ccccc1)c1cccc(Cl)c1 [Example 334, (3aR,6aS)-N-[(1S)-2-(4-Benzoyl-6-oxo-hexahydro-pyrrolo[3,2-b]pyrrol-1-yl)-1-(4-hydroxy-benzyl)-2-oxo-ethyl]-3-chloro-benzamide] | – | – | –
– | < 5 | O=C(N[C@@H](CC1CC1)C(=O)N1CC[C@@H]2[C@H]1C(=O)CN2C(=O)c1ccccc1)c1ccsc1 [Example 187, (3aR,6aS)-Thiophene-3-carboxylic acid [(1S)-2-(4-benzoyl-6-oxo-hexahydro-pyrrolo[3,2-b]pyrrole-1-yl)-1-cyclopropylmethyl-2-oxo-ethyl]-amide] | – | – | –
